Experiments:
[1] = system: anti-peptide IgG in plasma; assay: Test Example 4: peptide-specific IgG titer pre and post vaccination, bead-based multiplexed Luminex assay; type: in vivo, human; details: for Pre-vaccination IgG Negative (number of patients) / Pre-vaccination IgG Positive (number of patients): cut off 10 FIU; for Post vaccination IgG: number of (positive) patients among vaccinated: positive IgG response; for Pre-vaccination IgG Negative patients: number of 2,588 patients below 10 FIU; for Pre-vaccination IgG Positive patients: number of 2,588 patients with ≥10 FIU; for Post vaccination IgG: (positive) patients: number of vaccinated patients with positive IgG response; for Correlation between immune responses and OS: Negative (mOS): patients with negative post-vaccination IgG response to the peptide; for Correlation between immune responses and OS: Positive (mOS): patients with positive post-vaccination IgG response to the peptide
Protocol: As described previously, IgG titer specific to the antigen peptides in plasma was measured by bead-based multiplexed Luminex assay (Luminex, Austin, Tex.) before and after vaccination, i.e., at the end of each cycle or at the end of the clinical trial (Non-Patent Literature 4). In brief, 30 mL of peripheral blood was obtained before and after vaccination. Plasma was incubated with 100 μL of peptide-coupled color-coded beads for 2 hours at 25° C. on a plate shaker. After the incubation, the resultant mixture was washed with a vacuum manifold apparatus and incubated with 100 μL of biotinylated goat anti-human IgG (gamma chain-specific; Vector Laboratories, Burlingame, Calif.) for 1 hour at 25° C. on a plate shaker. The plate was then washed, followed by addition of 100 μL of streptavidin-PE (Life Technologies) to each well, and incubation for 30 minutes at 25° C. on a plate shaker. The resultant beads were washed 4 times, followed by addition of 100 μL of Tween-PBS to each well, and detection of fluorescence intensity units (FIU) on the beads using the Luminex system. The cutoff values of anti-peptide IgG were set to 10 FIU in 100-fold diluted samples.
Pre-vaccination peptide-specific IgG titers to 31 peptides were measured using a Luminex system. As a detectable IgG level, 10 FIU was employed as the cut off level, as reported previously (Noguchi M, et al., Cancer Immunol Immunother. 2013 May; 62(5): 919-29; Sasada T, et al., Current Medicinal Chemistry. 21: 2332-2345, 2014; Kibe S, et al., Cancer Immunology Research 2014; 2(12): 1154-62).
Post-vaccination lgG titers were measured at the ends of the first cycle and the second cycle.

cancer patients = assay: Test Example 4: correlation between vaccination with individual peptides (or peptide sets) and OS, Cox proportional hazards regression; type: in vivo, human; details: for HR: Cox proportional hazards regression, OS; for Correlation between immune responses and OS: Negative (mOS) / Correlation between immune responses and OS: Positive (mOS): Table 20, <64% neutrophil and ≥26% lymphocyte; for Correlation between immune responses and OS: Negative (mOS): vaccinated patients with negative IgG response; for Correlation between immune responses and OS: Positive (mOS): vaccinated patients with positive IgG response
Protocol: The Student's t-test and the chi-square test were used to compare quantitative and categorical variables, respectively. OS was calculated as the time in months from the date of clinical trial enrollment to death or to the date of last contact. Time-to-event endpoints were analyzed using the Kaplan-Meier method, and between-group comparison for OS was conducted using the log-rank test. Clinical efficacy of the individual peptides for OS was evaluated by univariate and multivariate analyses with the Cox proportional hazards regression model, and HR and 95% CI were calculated. All reported p-values were two-sided, and p-values less than 0.05 were considered significant. JMP version 12 or SAS version 9.4 software (SAS Institute Inc., Cary, N.C.) was used to perform all analyses.
Correlation levels of the 31 peptides for OS were evaluated by the Cox proportional hazards regression model.
Similarly, in the 2,085 advanced cancer patients (stage IV+recurrence) and the 503 non-advanced cancer patients (I-III stages) correlation levels of the 31 peptides for OS were evaluated by the Cox proportional hazards regression model. […]

[2] = Table 20, patients showing both <64% neutrophil and ≥26% lymphocyte
[3] = patients showing detectable levels
[4] = patients showing positive responses
[5] = Table 18, all 2,588 cases, vaccinated vs non-vaccinated
[6] = Table 18, all 2,588 cases, median OS of patients under PPV containing the peptide
[7] = Table 18, all 2,588 cases, median OS of patients under PPV not containing the peptide
[8] = Table 19, 2,085 advanced cancer patients (stage IV+recurrence)
[9] = Table 19, 2,085 advanced cancer patients (stage IV+recurrence), PPV containing the peptide
[10] = Table 19, 2,085 advanced cancer patients (stage IV+recurrence), PPV not containing the peptide
[11] = Table 21, patients showing both <64% neutrophil and ≥26% lymphocyte
[12] = Table 21, patients showing both <64% neutrophil and ≥26% lymphocyte, PPV containing the peptide
[13] = Table 21, patients showing both <64% neutrophil and ≥26% lymphocyte, PPV not containing the peptide
[14] = 2,085 advanced cancer patients (stage IV+recurrence)

| Sequence | Post vaccination IgG Median (FIU) [1, 2] | Pre-vaccination IgG Median (FIU) [1, 2] [FIU] | Pre-vaccination IgG Negative (number of patients) [1, 2] | Pre-vaccination IgG Positive (number of patients) [1, 2] | Post vaccination IgG: number of (positive) patients among vaccinated [1, 2] | Pre-vaccination IgG Negative patients [1] | Pre-vaccination IgG Positive patients [1] | Post vaccination IgG: (positive) patients [1] | Pre-vaccination IgG Median (FIU) [1, 3] [FIU] | Post vaccination IgG Median (FIU) [1, 4] | Correlation between immune responses and OS: Negative (mOS) [1] [months] | Correlation between immune responses and OS: Positive (mOS) [1] [months] | HR (cancer patients; [5]) | Vaccinate cases (mOS) (cancer patients; [6]) | Non-vaccinate cases (mOS) (cancer patients; [7]) | HR (cancer patients; [8]) | Vaccinate cases (mOS) (cancer patients; [9]) | Non-vaccinate cases (mOS) (cancer patients; [10]) | Correlation between immune responses and OS: Negative (mOS) (cancer patients) [months] | Correlation between immune responses and OS: Positive (mOS) (cancer patients) [months] | further results |
| --- | --- | --- | --- | --- | --- | --- | --- | --- | --- | --- | --- | --- | --- | --- | --- | --- | --- | --- | --- | --- | --- |
| TYSVSFDSL (listed as Homo sapiens) [PSMA-624] | 10,984 FIU | 26 | 680 | 386 | 37(26) | 1,638 | 950 | 101(50) | 24 | 7,772 FIU | 5.5 | 21.7 | 1.0 | 101(11.7) M | 1,449(12.0) M | 1.1 | 78(7.9) M | 1168(10.7) M | 21.2 | 24.4 | HR (cancer patients; [11]): 0.9; Vaccinate cases (mOS) (cancer patients; [12]): 37(21.2) M; Non-vaccinate cases (mOS) (cancer patients; [13]): 588(18.0) M |
| DYVREHKDNI (listed as Homo sapiens) [EGFR-800] | 746 FIU | 32 | 431 | 635 | 176(79) | 1,046 | 1,542 | 390(156) | 30 | 715 FIU | 12.4 | 24.3 | 0.8 | 390(14.3) M | 1,160(11.1) M | 0.8 | 299(13.1) M | 947(9.6) M | 17.1 | 27.5 | median OS of non-vaccinated cases (cancer patients; [14]): 9.6 months; median OS of vaccinated cases (cancer patients; [14]): 13.1 months; HR (cancer patients; [11]): 0.9; Vaccinate cases (mOS) (cancer patients; [12]): 176(21.2) M; Non-vaccinate cases (mOS) (cancer patients; [13]): 449(21.2) M; median OS of vaccinated cases (cancer patients; all 2,588 cases, PPV containing the peptide): 14.3 months; median OS of non-vaccinated cases (cancer patients; all 2,588 cases, PPV not containing the peptide): 11.1 months |
| NVLHFFNAPL (listed as Homo sapiens) [HNRPL-501] | 12,553 FIU | 48 | 587 | 479 | 148(111) | 1,399 | 1,189 | 355(223) | 45 | 10,405 FIU | 6.6 | 19.3 | 1.0 | 355(12.1) M | 1,107(11.6) M | 1.0 | 291(10.4) M | 897(10.3) M | 10.6 | 28.2 | HR (cancer patients; [11]): 0.9; Vaccinate cases (mOS) (cancer patients; [12]): 148(19.6) M; Non-vaccinate cases (mOS) (cancer patients; [13]): 445(17.5) M |
| KLKHYGPGWV (listed as Homo sapiens) [CypB-129] | 3,143 FIU | 28 | 290 | 776 | 196(110) | 700 | 1,888 | 483(222) | 31 | 2,483 FIU | 9.0 | 23.8 | 0.9 | 483(12.3) M | 1458(11.2) M | 0.9 | 393(10.9) M | 1183(10.1) M | 13.2 | 29.4 | HR (cancer patients; [11]): 0.9; Vaccinate cases (mOS) (cancer patients; [12]): 196(19.3) M; Non-vaccinate cases (mOS) (cancer patients; [13]): 612(16.9) M |
| DLLSHAFFA (listed as Homo sapiens) [MAP-432] | 947 FIU | 52 | 549 | 517 | 133(45) | 1,280 | 1,308 | 375(97) | 51 | 757 FIU | 12.0 | 23.8 | 1.0 | 375(11.1) M | 1,087(11.9) M | 1.1 | 296(9.7) M | 892(10.8) M | 15.5 | 29.4 | HR (cancer patients; [11]): 1.1; Vaccinate cases (mOS) (cancer patients; [12]): 133(16.1) M; Non-vaccinate cases (mOS) (cancer patients; [13]): 460(18.5) M |

Reference: US20220233661A1, “METHOD OF DETERMINING ELIGIBILITY OF CANCER PATIENT FOR PEPTIDE VACCINE THERAPY” (priority 2019, published 2022)
